Earlier results on three molecules are cited in US20220409679A1, “COMPOSITIONS AND METHODS WITH A PROBIOTIC AND A NUTRIENT AND/OR MINERAL FOR THE PREVENTION OR TREATMENT OF MASTITIS” (SOCIETE DES PRODUITS NESTLE S.A., priority 2019, published 2022).

In one data set the test system is mastitis in cows. The settings on record: O'Rourke 2009; for symptoms associated with mastitis: supplementation.
For data set [1] the following is noted: O'Rourke 2009.

Consider `[Se]` [selenium], for which, in the data set with mastitis in cows, the “symptoms associated with mastitis” value is on record as “improves symptoms associated with mastitis in cows”. Besides, in data set [1], the “antibacterial activity in milk” value is given as “improves antibacterial activity in milk”.
Consider `[Zn]` [zinc], for which, in the data set with mastitis in cows, the immune system result is listed as “enhance the immune system” and the “symptoms associated with mastitis” value is reported as “reduce mastitis symptoms in cows”.
Take `[Cu]` [copper]: in the data set with mastitis in cows, the immune system result was “enhance the immune system” and the “symptoms associated with mastitis” value was “reduce mastitis symptoms in cows”.
